Columns and labels:
[1] = test system: Flkd6 cardiomyocytes whose differentiation was induced from mouse ES cells EMG-7; experiment: Proliferation of mouse ES cell (EMG-7)-derived cardiomyocytes Flkd6: number of alpha-MHC-GFP-positive cells; format: cell-based; settings: for number of alpha-MHC-GFP-positive cells after addition (screening): Flkd6 purified by FACS, cultured for 5 days, 1 μM BIO, 5 μM SU1498, 5 μM KN93, FIG. 1a; for number of alpha-MHC-GFP-positive cells by FACS: cultured for 2 days (Flkd6+2) or 5 days (Flkd6+5), especially Flkd6+5, FIG. 1b; for cardiomyocyte-proliferation-promoting effect (number of alpha-MHC-GFP-positive cells per well): Flkd6+5, FIGS. 3a, 3b, 3d
Method: The human iPS cells (253G1) were provided by Prof. […] 253G1 cells are available from RIKEN BRC.
Thereafter, Flk1-positive cells were separated using FACS, and the separated cells were cultured on OP9 cells using a 3 μg/ml Cyclosporine A-containing medium (alpha MEM supplemented with 10% FBS) for 6 days, to induce differentiation into cardiomyocytes. These cells are hereinafter referred to as Flkd6.
The above-mentioned Flkd6, obtained by differentiation of EMG-7, was subjected to purification by FACS using alpha-MHC-GFP as an index. […] These three agents were added to Flkd6, and the cells were then cultured for 2 days (Flkd6+2) or 5 days (Flkd6+5), followed by measuring the number of alpha-MHC-GFP-positive cells by FACS.

[2] = test system: Flkd6 cardiomyocytes whose differentiation was induced from EMG-7; experiment: Influence on cell cycle: cells positive for pH3 (M phase) or EdU (S phase) in Flkd6; format: cell-based, mouse; settings: Flkd6 cultured with agent; FIG. 2
Method: DMSO is a control wherein only a solvent was added.
In order to examine the influence on the cell cycle, the number of cells positive for phosphorylation of histone 3 (pH3) (M phase) or ethynyl […] (EdU) (S phase) was assayed (FIG. 2a-d).

| SMILES | number of alpha-MHC-GFP-positive cells after addition (screening) [1] | number of alpha-MHC-GFP-positive cells by FACS [1] | influence on the cell cycle: pH3 (M phase) or EdU (S phase) positive cells [2] | cardiomyocyte-proliferation-promoting effect (number of alpha-MHC-GFP-positive cells per well) [1] |
| --- | --- | --- | --- | --- |
| CC(C)c1cc(/C=C(\C#N)C(=O)NCCCc2ccccc2)cc(C(C)C)c1O [SU1498, (E)-3-(3,5-diisopropyl-4-hydroxyphenyl)-2-[(3-phenyl-n-propyl)aminocarbonyl]acrylonitrile] | significantly increased the number of alpha-MHC-GFP-positive cells | significant increase in the number of the positive cells |  |  |
| O=C1Nc2cc(Br)ccc2/C1=C1/Nc2ccccc2/C1=N\O [BIO, 6-bromoindirubin 3′-oxime] | significantly increased the number of alpha-MHC-GFP-positive cells | significant increase in the number of the positive cells | promotes the S phase and the M phase from the early stage after its addition |  |
| Cc1c[nH]c(-c2cnc(NCCNc3ccc(C#N)cn3)nc2-c2ccc(Cl)cc2Cl)n1 [CHIR99021] |  |  |  | also have similar effects |
| COc1ccc(S(=O)(=O)N(CCO)c2ccccc2CN(C)CC=Cc2ccc(Cl)cc2)cc1 [KN93] | significantly increased the number of alpha-MHC-GFP-positive cells | significant increase in the number of the positive cells |  |  |
| CN([C@@H](Cc1ccc(OS(=O)(=O)c2cccc3cnccc23)cc1)C(=O)N1CCN(c2ccccc2)CC1)S(=O)(=O)c1cccc2cnccc12 [KN62, 1-[N,O-bis(5-isoquinolinesulfonyl)-N-methyl-L-tyrosyl]-4-phenylpiperazine] |  |  |  | also have similar effects |
| Cc1ccc(NC(=O)c2cccc(N(C)C)c2)cc1NC(=O)c1ccc(O)cc1 [ZM336372, 3-(dimethylamino)-N-[3-[(4-hydroxybenzoyl)amino]-4-methylphenyl]benzamide] |  |  |  | has a cardiomyocyte-proliferation-promoting effect |

— patent US9074188B2, “Cardiomyocyte- and/or cardiac progenitor cell-proliferating agent and method for proliferating cardiomyocytes and/or cardiac progenitor cells” (KYOTO UNIVERSITY, priority 2010, dated 2015)
